Laboratory results taken from US7307097B2, “Chemical compounds” (SmithKline Beechman Corporation, priority 2001, dated 2007).
Blank lines part the entries; values can stand above or below the compound they belong to.

Assays:
Recombinant GST-Tie2 = Recombinant GST-Tie2 (Homo sapiens, UniProt Q02763); experiment: Tie2 fluorescence polarization kinase activity assay (TIE2-FP); assay type: biochemical; details: 200 μM ATP, activated enzyme; read-out: TIE2-FP pIC50 (converted)
Procedure: Tie2 Fluorescence Polarization Kinase Activity Assay (TIE2-FP) Activation of Recombinant Tie2 Activation: Recombinant GST-Tie2 is activated by incubating the enzyme in 20 mM Tris-HCl, pH7.5, 12 mM MgCl2, 100 mM NaCl, 20 μM sodium vanidate, 1 mM DTT and 300 μM ATP at room temperature for 2 hours. The activation mixture is then passed through a NAP-25 desalting column (Pharmacia Biotech cat. no. 17-0852-02) to remove the free ATP. The activated enzyme is stored as aliquots at−80° C. in 20mM Tris-HCl, pH7.5 and 100 mM NaCl. Assay Conditions: The final assay conditions are 50 mM HEPES, pH7.5, 5% DMSO (when screening compounds), 200 μM ATP, 5mM MgCl2, 1 mM DTT, 50 μM sodium vanidate, 1 nM activated enzyme, and 200 μM peptide. IC50's of compounds are measured under subsaturating ATP (200 μM) and varing concentrations of activated Tie2 and peptide substrate (RFWKYEFWR-OH; MW 1873 Da, TFA salt). Panvera Anti-phosphotyrosine antibody (Cat#P2840) and PTK Green Tracer (Cat#P2842) are used to detect the phosphorylated peptide. Polarization is measured on a TECAN Polarion in 138-second cycles for 30 minutes at room temperature. IC50's are then determined from the % polarization using normal calculation methods. The IC50 values are converted to pIC50 values, i.e.,−log IC50 in Molar concentration.

[1] = test system: Human umbilical cord endothelial cells (HUVEC); experiment: VEGF-driven cellular proliferation assay: BrdU incorporation assay (VEGF-C); assay type: cell-based; details: read-out: VEGF-C pIC50 (converted)
Procedure: VEGF-driven Cellular Proliferation Assay: BrdU Incorporation Assay (VEGF-C)
Human umbilical cord endothelial cells (HUVEC, Clonetics, CC2519) are passaged in Type I collagen-coated 100-mm petridishes in EGM-MV medium (Clonetics, CC3125) at 37 C. in a humidified 5% CO2, 95% air incubator. (HUVEC passaged more than 6 times in vitro are discarded and not subjected to assaying.) The cells are harvested using trypsin/EDTA, counted using a haemocytometer and plated at 5000 cells/well in a Type I-collagen coated 96-well plate (Becton Dickinson, 354407) in M199 medium (Gibco BRL, 12340-030) containing 5% FBS (Hyclone, A 1115-L) and gentamicin (at 50 ug/ml, Gibco BRL). After incubation overnight at 37° C., the media are replaced with 100 ul of M199 serum-free medium containing compounds at various concentrations with 0.6% DMSO and gentamicin. The compounds are diluted in serum-free M199 medium from 10 mM stock solutions prepared in 100% DMSO. […] The incorporation of BrdU into the proliferating HUVEC are analyzed using BrdU Cell Proliferation ELISA (Roche Molecular Biochemicals, 1647229) according to the manufacturer's protocols. The optical density at 450 nm is measured with a multilabel counter (ARVO SX, Wallac). The percent inhibition of cell growth is calculated relative to blank control wells. […]

GST-VEGFR2 = target: T1, GST-VEGFR2 (Homo sapiens, UniProt P35968); experiment: VEGF-R2 enzyme assay (VEGFR-2-E2), LANCE method; assay type: biochemical; details: 75 uM ATP
T1 construct: recombinant constructs of the intracellular domains of human TIE2 tagged by GST; made in house
T1 sequence (P35968 786-1356 limits assumed): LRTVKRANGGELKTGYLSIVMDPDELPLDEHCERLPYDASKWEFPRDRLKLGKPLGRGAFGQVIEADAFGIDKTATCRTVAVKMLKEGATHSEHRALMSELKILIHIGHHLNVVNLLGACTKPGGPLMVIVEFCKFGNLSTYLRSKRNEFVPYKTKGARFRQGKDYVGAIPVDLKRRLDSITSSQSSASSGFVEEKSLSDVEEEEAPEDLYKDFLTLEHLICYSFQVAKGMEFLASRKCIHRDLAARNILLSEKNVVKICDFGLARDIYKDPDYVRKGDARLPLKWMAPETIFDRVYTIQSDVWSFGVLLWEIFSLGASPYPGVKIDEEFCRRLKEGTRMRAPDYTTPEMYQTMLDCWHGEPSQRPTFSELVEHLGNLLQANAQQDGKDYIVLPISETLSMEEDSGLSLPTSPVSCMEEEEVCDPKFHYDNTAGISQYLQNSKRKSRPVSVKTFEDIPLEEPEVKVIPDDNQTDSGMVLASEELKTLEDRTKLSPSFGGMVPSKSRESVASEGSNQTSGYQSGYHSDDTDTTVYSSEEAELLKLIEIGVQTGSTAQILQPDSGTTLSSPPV
From the text: VEGF-R2 Enzyme Assay (VEGFR-2-E2)
The VEGF enzyme assay uses the LANCE method (Wallac) and GST-VEGFR2, baculovirus expressed recombinant constructs of the intracellular domains of […] tagged by GST. The method measures the ability of the purified enzymes to catalyse the transfer of the γ-phosphate from ATP onto tyrosine residues in a biotinylated synthetic peptide, (biotin-aminohexyl-EEEEYFELVAKKKK-NH2). This peptide phosphorylation is detected using the following procedure: GST-VEGFR2 is incubated for 40-60 mins at room temperature with 75 uM ATP, 5 mM MgCl2, 0.1 mM DTT, 0.1 mg/mL BSA and the test compound (diluted from a 10 mM stock in DMSO for desired concentration) in 100 mM HEPES buffer. The reaction is stopped by the addition of EDTA (final concentration 50 mM). Streptavidin linked-APC (allophycocyanin, Molecular Probe) and Europium-labeled anti-phosphorylated tyrosine antibody (Wallac) are then added at the final concentration of 15 nM and 1 nM, respectively. The APC signal is measured using an ARVO multilabel counter (Wallac Berthold, Japan). The percent inhibition of activity is calculated relative to blank control wells. The concentration of test compound that inhibits 50% of activity (IC50) is interpolated using nonlinear regression (Levernberg-Marquardt) and the equation, y=Vmax (1−x/(K+x))+Y2, where “K” is equal to the IC50. […]

[2] = target: T2, human VEGFR3 catalytic domain (Homo sapiens, UniProt P35916, H890Q); experiment: VEGFR-3 homogenous time-resolved fluorescence assay (VEGFR-3-HTRF); assay type: biochemical; details: 75 μM ATP, 1 nM enzyme
T2 construct: made in house; host or cells: Sf9 insect cells (baculovirus, pFastBac1)
T2 sequence (P35916 with tags, fused parts or gaps isoform P35916-1 H890Q): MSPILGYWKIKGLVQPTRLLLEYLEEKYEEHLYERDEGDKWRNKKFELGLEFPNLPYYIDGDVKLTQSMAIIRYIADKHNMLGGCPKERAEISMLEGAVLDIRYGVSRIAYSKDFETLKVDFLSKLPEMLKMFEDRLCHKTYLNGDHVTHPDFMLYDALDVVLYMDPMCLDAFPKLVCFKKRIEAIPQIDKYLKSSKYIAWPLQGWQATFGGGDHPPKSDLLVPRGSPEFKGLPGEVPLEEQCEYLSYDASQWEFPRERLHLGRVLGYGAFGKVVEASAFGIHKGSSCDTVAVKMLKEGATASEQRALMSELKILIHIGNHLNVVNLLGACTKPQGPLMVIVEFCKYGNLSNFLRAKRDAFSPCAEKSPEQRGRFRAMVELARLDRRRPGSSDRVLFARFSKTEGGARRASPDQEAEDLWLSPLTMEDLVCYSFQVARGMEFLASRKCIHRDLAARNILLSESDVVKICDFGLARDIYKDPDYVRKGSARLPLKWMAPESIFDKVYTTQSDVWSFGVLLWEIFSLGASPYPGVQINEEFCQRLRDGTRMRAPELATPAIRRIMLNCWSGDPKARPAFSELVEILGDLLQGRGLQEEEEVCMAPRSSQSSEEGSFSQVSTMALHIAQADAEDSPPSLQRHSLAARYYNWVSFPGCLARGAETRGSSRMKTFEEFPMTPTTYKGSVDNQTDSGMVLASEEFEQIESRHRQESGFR
From the text: VEGFR-3—Homogenous Time-resolved Fluorescence Assay (VEGFR-3-HTRF)
This assay assesses Vascular Endothelial Growth Factor 3 (VEGFR3) tyrosine kinase inhibitory activity in substrate phosphorylation assays. The assay examines the ability of small molecule organic compounds to inhibit the tyrosine phosphorylation of a peptide substrate.
The substrate phosphorylation assays use the VEGFR3 catalytic domain, which is expressed in Sf. 9 insect cells as an amino-terminal GST-tagged fusion protein. The catalytic domain of human VEGFR3 (AA residues #819-1298 based upon GenBank Accession #XM003852) is cloned by PCR from human Placenta Marathon Ready cDNA (Clontech). The PCR product is subcloned into pFastBac1 vector containing an N-terminal GST tag. […]
200 nM VEGFR3 enzyme is activated for 45 minutes at room temperature by incubating the enzyme in buffer containing 100 mM HEPES (pH7.2), 75 μM ATP, 0.3 mM DTT, 0.1 mg/mL BSA, and 10 mM MgCl2. […] Assay plates are left unsealed and are counted in a Wallac Multilabel Counter 1420 (PerkinElmer).
The data for dose responses are plotted as % Control calculated with the data reduction formula 100*(U1-C2)/(C1-C2) versus concentration of compound where U is the unknown value, C1 is the average control value obtained for DMSO, and C2 is the average control value obtained for 0.1M EDTA. […]

[3] = target: T3, GST-TIE2 (intracellular domains of human TIE2) (Homo sapiens, UniProt Q02763); experiment: TIE-2 enzyme assay (TIE-2-E2); assay type: biochemical
T3 construct: made in house
T3 sequence (Q02763 762-1104): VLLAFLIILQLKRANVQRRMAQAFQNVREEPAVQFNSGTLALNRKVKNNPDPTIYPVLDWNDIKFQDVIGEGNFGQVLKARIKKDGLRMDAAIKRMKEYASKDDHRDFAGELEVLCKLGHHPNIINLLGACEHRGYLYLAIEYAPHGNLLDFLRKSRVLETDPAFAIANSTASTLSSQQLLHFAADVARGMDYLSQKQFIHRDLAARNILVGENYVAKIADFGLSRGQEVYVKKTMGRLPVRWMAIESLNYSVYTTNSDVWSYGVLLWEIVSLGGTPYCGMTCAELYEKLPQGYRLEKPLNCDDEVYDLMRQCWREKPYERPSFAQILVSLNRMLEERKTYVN
From the text: TIE-2 Enzyme Assay (TIE2-E)
The TIE-2 enzyme assay uses the LANCE method (Wallac) and GST-TIE2, baculovirus expressed recombinant constructs of the intracellular domains of human TIE2 (amino acids 762-1104, GenBank Accession # L06139) tagged by GST). The method measures the ability of the purified enzymes to catalyse the transfer of the γ-phosphate from ATP onto tyrosine residues in a biotinylated synthetic peptide, D1-15 (biotin-C6-LEARLVAYEGWVAGKKKamide). This peptide phosphorylation is detected using the following procedure: for enzyme preactivation, GST-TIE2 is incubated for 30 mins at room temperature with 2 mM ATP, 5 mM MgCl2 and 12.5 mM DTT in 22.5 mM HEPES buffer (pH7.4). Preactivated GST-TIE2 is incubated for 30 mins at room temperature in 96 well plates with 1 uM D1-15 peptide, 80 uM ATP, 10 mM MgCl2, 0.1 mg/ml BSA and the test compound (diluted from a 10 mM stock in DMSO, final DMSO concentration is 2.4%) in 1 mM HEPES (pH7.4). The reaction is stopped by the addition of EDTA (final concentration 45 mM). Streptavidin linked-APC (allophycocyanin, Molecular Probe) and Europium-labeled anti-phosphorylated tyrosine antibody (Wallac) are then added at the final concentration of 17 ug/well and 2.1 ug/well, respectively. The APC signal is measured using an ARVO multilabel counter. […] The percent inhibition of activity is calculated relative to blank control wells. […]

Chain of Recombinant GST-Tie2 (Q02763 23-1124): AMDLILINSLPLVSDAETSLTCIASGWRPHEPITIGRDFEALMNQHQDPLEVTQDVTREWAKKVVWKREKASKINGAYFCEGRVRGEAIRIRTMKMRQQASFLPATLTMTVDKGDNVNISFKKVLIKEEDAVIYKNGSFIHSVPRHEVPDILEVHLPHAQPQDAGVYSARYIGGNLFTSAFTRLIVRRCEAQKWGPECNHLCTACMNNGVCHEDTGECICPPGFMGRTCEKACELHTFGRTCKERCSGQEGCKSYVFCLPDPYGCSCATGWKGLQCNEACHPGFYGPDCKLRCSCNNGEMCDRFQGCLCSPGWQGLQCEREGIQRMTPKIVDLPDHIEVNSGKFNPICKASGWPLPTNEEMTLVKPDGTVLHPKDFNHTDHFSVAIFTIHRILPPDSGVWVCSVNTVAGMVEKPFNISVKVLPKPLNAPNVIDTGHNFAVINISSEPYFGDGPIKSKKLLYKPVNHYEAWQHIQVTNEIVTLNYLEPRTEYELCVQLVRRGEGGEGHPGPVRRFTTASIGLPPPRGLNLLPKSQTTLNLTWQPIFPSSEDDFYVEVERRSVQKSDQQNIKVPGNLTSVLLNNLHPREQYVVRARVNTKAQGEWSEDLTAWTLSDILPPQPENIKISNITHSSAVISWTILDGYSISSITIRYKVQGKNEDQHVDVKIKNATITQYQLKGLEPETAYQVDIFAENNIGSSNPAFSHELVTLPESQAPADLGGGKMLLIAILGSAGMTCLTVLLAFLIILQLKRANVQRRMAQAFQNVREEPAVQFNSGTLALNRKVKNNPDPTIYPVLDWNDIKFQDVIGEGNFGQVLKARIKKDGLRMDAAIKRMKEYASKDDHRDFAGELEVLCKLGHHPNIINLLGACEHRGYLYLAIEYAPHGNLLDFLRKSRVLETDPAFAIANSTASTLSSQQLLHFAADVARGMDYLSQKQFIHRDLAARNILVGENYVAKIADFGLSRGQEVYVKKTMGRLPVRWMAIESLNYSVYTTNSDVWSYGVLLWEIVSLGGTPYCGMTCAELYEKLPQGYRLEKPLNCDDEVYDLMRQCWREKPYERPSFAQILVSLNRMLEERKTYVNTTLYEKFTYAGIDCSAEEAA

IC50 (Recombinant GST-Tie2): < 100 nM
Compound: CC(C)(C)n1nc(-c2ccc(NC(=O)Nc3cc(C(F)(F)F)ccc3F)cc2)c(C(N)=O)c1N [Example 1, 5-Amino-1-tert-butyl-3-{4-[3-(2-fluoro-5-trifluoromethyl-phenyl)-ureido]-phenyl}-1H-pyrazole-4-carboxylic acid amide]
IC50 [1]: < 100 nM

IC50 (GST-VEGFR2; read-out: VEGFR-2-E2 pIC50 (converted)): < 100 nM
IC50 ([2]; read-out: VEGFR-3-HTRF pIC50 (converted)): < 100 nM
IC50 ([3]; read-out: TIE-2-E2 pIC50 (converted)): < 100 nM
Compound: CC(C)(C)c1cc(NC(=O)Nc2ccc(-c3nn(C(C)(C)C)c(N)c3C(N)=O)cc2)no1 [Example 35, 5-Amino-1-tert-butyl-3-{4-[3-(5-tert-butyl-isoxazol-3-yl)-ureido]-phenyl}-1H-pyrazole-4-carboxylic acid amide]

Compound: N,N-Dimethylamino-{4-[3-(fluoro-trifluoromethyl-phenyl)-ureido]-phenyl}-methyl-1H-pyrazole-4-carboxylic acid amide [Example 34]
VEGFR-2-E2 pIC50 (GST-VEGFR2): + (+ = pIC50 of 5.0-6.0)
VEGFR-3-HTRF pIC50 [2]: + (+ = pIC50 of 5.0-6.0)
TIE-2-E2 pIC50 [3]: +++ (+++ = pIC50 > 7.0)
